Data on 58 compounds can be found in paper PMC8286817, “Identifying SARS-CoV-2 antiviral compounds by screening for small molecule inhibitors of Nsp14 RNA cap methyltransferase” (Biochemical Journal, 2021).

Where a name gives a salt, the structure may show the parent alone. Peptide text beside a SMILES is read from it. * marks the point of attachment. Cbz = O=C(OCc1ccccc1)*

The target in one test is T1, SARS-CoV-2 nsp14 guanine-N7 methyltransferase (Severe acute respiratory syndrome coronavirus 2, UniProt P0DTD1).
Test: not given
The test is classed as biochemical.
Conditions: not given
Regarding `CC(N)c1cccc(Cl)c1Cl.Cl` (racemic) [(±)-2,3-Dichloro-alpha-methylbenzylamine hydrochloride], the “Z-Score in primary screen” value was found to be 3.186.
As to `C[C@@H]1O[C@H](C[N+](C)(C)C)C[C@H]1O.[Cl-]` (racemic) [(±)-Muscarine chloride], the “Z-Score in primary screen” value was 3.736.
`CCCCC[C@H](O)/C=C/C=C\C/C=C\C=C\[C@@H](O)CCCC(=O)O` [5(S),15(S)-DIHETE]: the “Z-Score in primary screen” value is reported as 3.436.
Regarding `Br.NC1CCc2cc(O)c(O)cc2C1` (stereo not shown) [6,7-ADTN hydrobromide], the “Z-Score in primary screen” value is 3.690.
The same measure, in the same setting: for `CCC(Sc1nnc2c(n1)[nH]c1ccccc12)C(=O)N1c2ccccc2Sc2ccccc21` (stereo not shown) [10-[2-(5H-[1,2,4]triazino[5,6-b]indol-3-ylsulfanyl)butanoyl]-10H-phenothiazine] the value was 5.999; for `C1=C2CCCN[C@H]2[C@@H]2C[C@H]1[C@H]1CCCCN1C2` [Aloperine], 6.366.
`C[C@@H]1CC[C@H]2[C@@H](C)C(=O)O[C@@H]3O[C@@]4(C)CC[C@@H]1[C@]32OO4` [Artemisisin]: the “Z-Score in primary screen” value was determined as 2.850.
Same read-out and setting: for `CCCCOc1ccc(CC(=O)NO)cc1` [Bufexamac] the value was 5.383; for `CCCCNc1cc(C(=O)O)cc(S(N)(=O)=O)c1Oc1ccccc1` [Bumetanide], 3.246.
On to `CCCCN1CCCCC1C(=O)Nc1c(C)cccc1C` (stereo not shown) [Bupivacaine], for which the “Z-Score in primary screen” value was 3.673.
`C[C@H](N)C(=O)N1C[C@H](CCCB(O)O)[C@](N)(C(=O)O)C1` [CB-1158 (dihydrochloride)]: the “Z-Score in primary screen” value is 4.540.
On to `CC(C[N+](C)(C)C)OC(N)=O` (stereo not drawn) [Carbamyl-beta-methylcholine], for which the “Z-Score in primary screen” value worked out at 3.385.
For the compound `Cc1c(C(=O)O)c(O)cc2c1C(=O)c1c(O)c([C@@H]3O[C@H](CO)[C@@H](O)[C@H](O)[C@H]3O)c(O)c(O)c1C2=O` [Carminic acid], the “Z-Score in primary screen” value is listed as 3.060.
For the compound `CCn1nc(C(=O)O)c(=O)c2cc3c(cc21)OCO3` [Cinoxacin], the “Z-Score in primary screen” value was 3.126.
Consider `c1ccc(CNc2nc(NCc3ccccc3)c3ccccc3n2)cc1` [DBeQ], for which the “Z-Score in primary screen” value is 4.776.
As for `c1ccc2c(c1)N=C(N1CCNCC1)c1ccccc1N2` [DREADD agonist 21], the “Z-Score in primary screen” value turned out to be 3.333.
The same measure, in the same setting: for `CNCCCN1c2ccccc2CCc2ccccc21` [Desipramine hydrochloride] the value was 4.460.
On to `COc1ccc2c(c1)[C@]13CCCC[C@@H]1[C@H](C2)N(C)CC3` [Dextromethorphan], for which the “Z-Score in primary screen” value is recorded as 3.036.
For `O=c1c2ccccc2[se]n1-c1ccccc1` [Ebselen], the “Z-Score in primary screen” value is listed as 5.010.
As to `CCC1(C)CC(=O)NC1=O` (stereo not shown) [Ethosuximide], the “Z-Score in primary screen” value is reported as 3.595.
As for `CC(Cc1ccc(O)cc1)NCC(O)c1cc(O)cc(O)c1` (stereo not shown) [Fenoterol hydrobromide], the “Z-Score in primary screen” value worked out at 3.275.
Consider `CC(C)C(=O)Nc1ccc([N+](=O)[O-])c(C(F)(F)F)c1` [Flutamide], for which the “Z-Score in primary screen” value came to 3.970.
With `C[C@]12CCC(=O)C=C1CC[C@@H]1[C@@H]2[C@@H](O)C[C@@]2(C)[C@H]1CC[C@]2(O)C(=O)CO` [Hydrocortisone], the “Z-Score in primary screen” value came out at 4.062.
For the compound `COc1cc2c(cc1OC)CC(=O)N(CCCN(C)C[C@H]1Cc3cc(OC)c(OC)cc31)CC2` [Ivabradine], the “Z-Score in primary screen” value was determined as 2.786.
On to `CCN1C[C@]2(C)CC[C@H](O)[C@]34C1[C@@H](C[C@H]23)[C@@]1(O)C[C@H](OC)[C@H]2C[C@@H]4[C@@H]1[C@H]2O` [Karakoline], for which the “Z-Score in primary screen” value is on record as 3.794.
With `Cl.Cl.Cl.Ic1ccc(N2CCN(Cc3c[nH]c4ncccc34)CC2)cc1` [L-750,667 trihydrochloride], the “Z-Score in primary screen” value turned out to be 3.788.
On the same count and under the same terms, for `Nc1nc(OCc2cc(Br)cs2)c2[nH]cnc2n1` [Lomeguatrib] the value was 2.697; for `CC(C)[C@H](NC(=O)OCc1ccccc1)C(=O)N[C@H](C=O)Cc1ccccc1` [MDL 28170] (Cbz-Val-Phe-aldehyde), 3.310; for `CNC[C@H](O)[C@@H](O)[C@H](O)[C@H](O)CO` [Meglumine], 3.529.
With `CC1(C)CNc2cc(NC(=O)c3cccnc3NCc3ccncc3)ccc21` [Motesanib], the “Z-Score in primary screen” value is given as 3.875.
On to `O=c1c(O)c(-c2cc(O)c(O)c(O)c2)oc2cc(O)cc(O)c12` [Myricetin], for which the “Z-Score in primary screen” value is reported as 6.539.
Turning to `CC(COc1ccc(/C=C/c2ccccc2)cc1)[N+](C)(C)C.[I-]` (stereo not drawn) [N,N,N-trimethyl-1-(4-trans-stilbenoxy)-2-propylammonium iodide], the “Z-Score in primary screen” value is 3.028.
As for `CNCCc1ccc(O)c(O)c1.Cl` [N-Methyldopamine hydrochloride], the “Z-Score in primary screen” value is reported as 3.906.
As to `COc1ccc(C2=N[C@H](c3ccc(Cl)cc3)[C@H](c3ccc(Cl)cc3)N2C(=O)N2CCNC(=O)C2)c(OC(C)C)c1` [Nutlin (3b)], the “Z-Score in primary screen” value worked out at 4.552.
Take `O=C(O)CCCCCCC(=O)O` [Octanedioic acid]: the “Z-Score in primary screen” value is listed as 3.256.
With `N#Cc1ccc(N2N=C3c4ccc(C(=O)O)cc4CC[C@@H]3[C@@H]2C2CCCC2)cc1Cl` [PF-03882845], the “Z-Score in primary screen” value was 5.080.
With `CCCN1C[C@H](CSC)C[C@@H]2c3cccc4[nH]cc(c34)C[C@H]21` [Pergolide methanesulfonate], the “Z-Score in primary screen” value is 3.690.
For the compound `O=C1NC(=O)C(c2ccccc2)(c2ccccc2)N1` [Phenytoin sodium], the “Z-Score in primary screen” value came to 3.651.
Same read-out and setting: under `CCCCCCCCCCCCCC(=O)O[C@@H]1[C@@H](C)[C@@]2(O)[C@@H](C=C(CO)C[C@]3(O)C(=O)C(C)=C[C@@H]23)[C@@H]2C(C)(C)[C@]12OC(C)=O` [Phorbol 12-myristate 13-acetate] stands 7.036.
Consider `CN1CCc2cc(Cl)c(O)cc2[C@@H](c2ccccc2)C1.Cl` [R(+)-SCH-23390 hydrochloride], for which the “Z-Score in primary screen” value was found to be 3.847.
Same read-out and setting: under `COc1ccc(CCNC[C@H](O)c2ccc(O)cc2)cc1OC` [R(-)-Denopamine] stands 5.027; under `Cc1cncc(CN2CCC(=C3c4ccc(Cl)cc4CCc4cccnc43)CC2)c1.O=C(O)/C=C/C(=O)O` [Rupatadine Fumarate], 3.745; under `C[n+]1ccccc1CC(=O)c1ccc(Br)cc1.[I-]` [S 24795], 3.557.
In the case of `Nc1ncnc2c1ncn2C1CCCO1` (stereo not shown) [SQ 22536], the “Z-Score in primary screen” value was determined as 3.378.
The same measure, in the same setting: under `Cl.NC1CCN(c2cccc(Cl)n2)CC1` [SR 57227A] stands 4.099; under `NC(=O)C(=O)O` [Sodium Oxamate], 3.379.
Still for that read-out and setting: for `CCN(CC)CC.Nc1ncnc2c1ncn2[C@@H]1O[C@@H]2COP(O)(=S)O[C@H]2[C@H]1O` (stereo partly shown) [Sp-cAMPS triethylamine] the value was 3.048; for `C[N+]1(C)CCC[C@H]1C(=O)[O-].Cl` [Stachydine hydrochloride], 2.622; for `O=C(CCCN1CCC(O)(c2cccc(C(F)(F)F)c2)CC1)c1ccc(F)cc1` [Trifluperidol], 5.671.
For `CC(C)(C)c1cc(C=C(C#N)C#N)cc(C(C)(C)C)c1O` [Tyrphostin A9], the “Z-Score in primary screen” value is given as 3.261.
In the case of `Brc1c(NC2=NCCN2)ccc2nccnc12` [UK 14,304], the “Z-Score in primary screen” value is listed as 3.074.
Regarding `NC(N)=NCc1cccc(I)c1.NC(N)=NCc1cccc(I)c1.O=S(=O)(O)O` [m-Iodobenzylguanidine hemisulfate], the “Z-Score in primary screen” value worked out at 4.530.
Consider `Nc1ccc(C(=O)O)cc1` [p-Aminobenzoic acid], for which the “Z-Score in primary screen” value was 2.479.
For Bioymifi, the “Z-Score in primary screen” value is given as 3.204.
With Inauhzin, the “Z-Score in primary screen” value came to 3.833.

The next test has as its target T1, SARS-CoV-2 nsp14 guanine-N7 methyltransferase. Put plainly: biochemical. The test is classed as biochemical.
Conditions: not given
Consider `Nc1nc(OCc2cc(Br)cs2)c2[nH]cnc2n1` [Lomeguatrib], for which the IC50 turned out to be 59.8 µM.
`O=C(CCCN1CCC(O)(c2cccc(C(F)(F)F)c2)CC1)c1ccc(F)cc1` [Trifluperidol] came in with an IC50 of 12.9 µM.
Regarding `Nc1ncnc2c1ncn2[C@@H]1O[C@H](C[C@@H](N)CC[C@H](N)C(=O)O)[C@@H](O)[C@H]1O` [sinefungin], the “Inhibition of nsp14 activity (HTRF signal)” value is reported as “inhibited nsp14 activity in a dose-dependent manner”.

Staying with this test, now noted: read-out: Km (Michaelis constant) of substrate for nsp14.
In general, Km refers to the concentration of substrate that gives half-maximal velocity. Take `Nc1nc2c(ncn2[C@@H]2O[C@H](COP(=O)(O)OP(=O)(O)OP(=O)(O)O)[C@@H](O)[C@H]2O)c(=O)[nH]1` [GTP]: the Km turned out to be 301 ± 110 µM.
In the case of `Nc1nc2c(ncn2[C@@H]2O[C@H](COP(=O)(O)OP(=O)(O)OP(=O)(O)OC[C@H]3O[C@@H](n4cnc5c(N)ncnc54)[C@H](O)[C@@H]3O)[C@@H](O)[C@H]2O)c(=O)[nH]1` [GpppA], the Km was 114 ± 21 µM.

The test is the same for the next values; noted with them: read-out: Normalised HTRF50 (inhibition of nsp14 methyltransferase activity).
In the case of Inauhzin, the IC50 was 23 µM.
